Test results: US8394854B2, “Use of L-carnitine for the treatment of cardiovascular diseases” (Sigma-Tau Industrie Farmaceutiche Riunite S.p.A., priority 2004, dated 2013)

Experiments:
[1] = tested on: patients with acute myocardial infarction; test: Multicentre randomized, double-blind, placebo-controlled, parallel-group clinical trial of L-carnitine; type: in vivo, human; conditions: for RR (Relative Risk) of death at 1 mo. / RR (Relative Risk) of death at 2 mos. / RR (Relative Risk) of death at 6 mos. / RR (Relative Risk) of death at 12 mos. / RR (Relative Risk) of death at 3 days / RR (Relative Risk) of death at 5 days / RR (Relative Risk) of death at 7 days: vs placebo
Experimental: A clinical trial was conducted aimed at evaluating the effect of the administration of L-carnitine on short-, medium- and long-term incidence and mortality in patients with acute myocardial infarction. The trial design was that of a multicentre randomized, double-blind, placebo-controlled, parallel-group trial.
A total of 2,296 patients of male and female sex were recruited, aged below 80 years, subdivided into groups. The study compound, L-carnitine, was administered at a dose of 9 g/day i.v. for the first 5 days and 4 g/day by mouth from day 6 to day 180.
In particular, in one group of patients the L-carnitine was administered intravenously dissolved in sterile saline solution, while in another group of patients it was administered dissolved in normal 5% glucose solution used in hospital departments.
The control group received the standard therapy used for the treatment of infarct, without L-carnitine.
Concomitant therapies were administered according to the procedures adopted in local clinical practice.
The efficacy parameters evaluated were reduction of mortality, reduction of the number of days spent in intensive care, and reduction of the number of episodes of post-infarction heart failure.
• Typical chest pain lasting >30 minutes which is not relieved by oral or i.v. administration of nitrates; • ECG with ST-segment elevation 0.2 mV in D, and in lead aVL and/or in at least two contiguous precordial leads; • Time interval elapsing between onset of symptoms and study randomisation <12 hours; • Age <80 years; • Written informed consent. Exclusion Criteria • Pregnancy or breast-feeding; • Haemodynamically significant valvulopathy; • Hypertrophic or dilatory cardiomyopathy; • Congenital cardiopathy; • Clinically severe liver and kidney disease; • Alcohol abuse; • Other diseases associated with a poor life expectancy; • Conditions making poor compliance with treatment and/or periodic examinations likely; • Inclusion in another trial.

[2] = tested on: infarction patients; conditions: two deaths also in the placebo group; cited from earlier work
[3] = tested on: infarction patients; conditions: L-carnitine administered within 24 hours of the infarction; 14 in the control group; cited from earlier work
[4] = tested on: patients presenting infarction symptoms; conditions: 2 g/day; 6 in the control group; cited from earlier work
[5] = tested on: patients with signs of infarction; conditions: 40 mg/kg/day (2.8 g/day), cited from earlier work
[6] = tested on: patients with acute myocardial infarction; conditions: 3 grams every 8 hours (9 grams a day) intravenously for 48 hours; control saline solution; cited from earlier work
[7] = tested on: experimental cardiac ischaemia model; conditions: dogs; cited from earlier work
[8] = all patients, L-carnitine in saline or glucose solution
[9] = group treated with L-carnitine dissolved in glucose solution
[10] = L-carnitine dissolved in glucose solution
[11] = all patients, saline or glucose solution

Compound: C[N+](C)(C)C[C@H](O)CC(=O)[O-] [L-carnitine]
- NUMBER OF DEATHS AT: 1 mo. [1, 8]: 45
- NUMBER OF DEATHS AT: 1 mo. [1, 9]: 22
- RR (Relative Risk) of death at 1 mo. [1, 10]: 0.79
- RR (Relative Risk) of death at 1 mo. [1, 11]: 0.78
- NUMBER OF DEATHS AT: 2 mos. [1, 8]: 53
- NUMBER OF DEATHS AT: 2 mos. [1, 9]: 26
- RR (Relative Risk) of death at 2 mos. [1, 10]: 0.80
- RR (Relative Risk) of death at 2 mos. [1, 11]: 0.81
- NUMBER OF DEATHS AT: 6 mos. [1, 8]: 64
- NUMBER OF DEATHS AT: 6 mos. [1, 9]: 32
- RR (Relative Risk) of death at 6 mos. [1, 10]: 0.87
- RR (Relative Risk) of death at 6 mos. [1, 11]: 0.86
- NUMBER OF DEATHS AT: 12 mos. [1, 8]: 67
- NUMBER OF DEATHS AT: 12 mos. [1, 9]: 33
- RR (Relative Risk) of death at 12 mos. [1, 10]: 0.88
- RR (Relative Risk) of death at 12 mos. [1, 11]: 0.89
- NUMBER OF DEATHS AT: 3 days ([1]; all patients, L-carnitine in saline or glucose solution, 9 g/day i.v. 5 days then 4 g/day oral): 23
- NUMBER OF DEATHS AT: 3 days [1, 9]: 11
- RR (Relative Risk) of death at 3 days [1, 10]: 0.67
- RR (Relative Risk) of death at 3 days [1, 11]: 0.68
- NUMBER OF DEATHS AT: 5 days [1, 8]: 27
- NUMBER OF DEATHS AT: 5 days [1, 9]: 13
- RR (Relative Risk) of death at 5 days [1, 10]: 0.64
- RR (Relative Risk) of death at 5 days [1, 11]: 0.63
- NUMBER OF DEATHS AT: 7 days [1, 8]: 31
- NUMBER OF DEATHS AT: 7 days [1, 9]: 15
- RR (Relative Risk) of death at 7 days [1, 10]: 0.70
- RR (Relative Risk) of death at 7 days [1, 11]: 0.69
- deaths in the group treated with L-carnitine [2]: two
- patients in the treated group who died over the entire hospitalisation period [3]: 11
- number of deaths at 28 days after the start of treatment [4]: 4
- difference between patients treated within 4 hours of onset of symptoms of infarction and patients treated 4 hours after onset [5]: no statistically significant difference
- number of deaths in the treated group ([5]; one in the control group): none
- mortality at 7 days after the start of treatment, control group vs treated group [6]: no significant difference
- enhancing cardiac lipid metabolism [7]: active
